Assay results taken from patent US8658646B2, “Pyrrolopyrazine kinase inhibitors” (Hoffmann-LaRoche Inc., priority 2011, dated 2014).

molecular target: T1, JAK3: Recombinant human kinase domain (Homo sapiens, UniProt P52333); assay: Determination of IC50 of Janus Kinase (JAK) inhibition, radioactive end-point 33P-ATP assay, JAK3; assay type: biochemical; details: ATP 1.5 uM, peptide 50 uM, 20 minutes, read-out: JAK3-INHIB-DR/v1~NO ADDITIVE~Enzyme_Conc = 100
T1 construct: JAK3: Recombinant human kinase domain from Millipore (Cat #14-629) or prepared; purchased Millipore 14-629
T1 sequence (P52333 822-1111 limits assumed): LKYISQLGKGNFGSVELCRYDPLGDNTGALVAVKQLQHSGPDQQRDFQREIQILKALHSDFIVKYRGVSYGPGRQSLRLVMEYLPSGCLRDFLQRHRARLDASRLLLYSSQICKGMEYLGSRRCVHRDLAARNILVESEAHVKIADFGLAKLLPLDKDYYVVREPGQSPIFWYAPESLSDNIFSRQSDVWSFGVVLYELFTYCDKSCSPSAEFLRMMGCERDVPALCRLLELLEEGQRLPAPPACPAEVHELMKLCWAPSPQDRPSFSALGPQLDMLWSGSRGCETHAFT

| IC50 [nM] | SMILES |
| --- | --- |
| 12.6 | C[C@@H](NC(=O)c1c[nH]c2ncc(-c3nn(CC(O)CO)c4cc(Cl)ccc34)nc12)C(=O)N1CC(C#N)C1 (stereo partly drawn) [Example I-94, 2-[6-Chloro-1-(2,3-dihydroxy-propyl)-1H-indazol-3-yl]-5H-pyrrolo[2,3-b]pyrazine-7-carboxylic acid [(R)-2-(3-cyano-azetidin-1-yl)-1-methyl-2-oxo-ethyl)-amide] |
| 4.83 | CC(O)Cn1nc(-c2cnc3[nH]cc(C(=O)N[C@H](C)C(=O)N4CC(C#N)C4)c3n2)c2ccc(Cl)cc21 (stereo partly drawn) [Example I-95, 2-[6-Chloro-1-(2-hydroxy-propyl)-1H-indazol-3-yl]-5H-pyrrolo[2,3-b]pyrazine-7-carboxylic acid [(R)-2-(3-cyano-azetidin-1-yl)-1-methyl-2-oxo-ethyl]-amide] |
| 5.39 | C[C@@H](NC(=O)c1c[nH]c2ncc(-c3nn(CCCO)c4cc(Cl)ccc34)nc12)C(=O)N1CC(C#N)C1 [Example I-96, 2-[6-Chloro-1-(3-hydroxy-propyl)-1H-indazol-3-yl]-5H-pyrrolo[2,3-b]pyrazine-7-carboxylic acid [(R)-2-(3-cyano-azetidin-1-yl)-1-methyl-2-oxo-ethyl]-amide] |
| 57.1 | C[C@@H](NC(=O)c1c[nH]c2ncc(-c3nn(C)c4cc(Cl)cc(Cl)c34)nc12)C(=O)N1CC(C#N)C1 [Example I-97, 2-(4,6-Dichloro-1-methyl-1H-indazol-3-yl)-5H-pyrrolo[2,3-b]pyrazine-7-carboxylic acid [(R)-2-(3-cyano-azetidin-1-yl)-1-methyl-2-oxo-ethyl]-amide] |
| 6.78 | C[C@@H](NC(=O)c1c[nH]c2ncc(-c3nn(C)c4cccnc34)nc12)C(=O)N1CC(C#N)C1 [Example I-98, 2-(1-Methyl-1H-pyrazolo[4,3-b]pyridin-3-yl)-5H-pyrrolo[2,3-b]pyrazine-7-carboxylic acid [(R)-2-(3-cyano-azetidin-1-yl)-1-methyl-2-oxo-ethyl]-amide] |
| 0.85 | C[C@@H](NC(=O)c1c[nH]c2ncc(-c3nn(C)c4ccsc34)nc12)C(=O)N1CC(C#N)C1 [Example I-99, 2-(1-Methyl-1H-thieno[3,2-c]pyrazol-3-yl)-5H-pyrrolo[2,3-b]pyrazine-7-carboxylic acid [(R)-2-(3-cyano-azetidin-1-yl)-1-methyl-2-oxo-ethyl]-amide] |
| 156 | C[C@@H](NC(=O)c1c[nH]c2ncc(-c3nn(C)c4cc(F)ccc34)nc12)C1(C#N)CCCC1 [Example I-100, 2-(6-Fluoro-1-methyl-1H-indazol-3-yl)-5H-pyrrolo[2,3-b]pyrazine-7-carboxylic acid [(R)-1-(1-cyano-cyclopentyl)-ethyl]-amide] |
| 54.4 | C[C@H](CS(C)(=O)=O)NC(=O)c1c[nH]c2ncc(-c3nn(C)c4cc(Cl)ccc34)nc12 [Example I-105, 2-(6-Chloro-1-methyl-1H-indazol-3-yl)-5H-pyrrolo[2,3-b]pyrazine-7-carboxylic acid ((R)-2-methanesulfonyl-1-methyl-ethyl)-amide] |
| 5.26 | Cn1nc(-c2cnc3[nH]cc(C(=O)NC4CCCC4)c3n2)c2ccc(Cl)cc21 [Example I-106, 2-(6-Chloro-1-methyl-1H-indazol-3-yl)-5H-pyrrolo[2,3-b]pyrazine-7-carboxylic acid cyclopentylamide] |
| 7.05 | CC(C)NC(=O)c1c[nH]c2ncc(-c3nn(C)c4cc(Cl)ccc34)nc12 [Example I-108, 2-(6-Chloro-1-methyl-1H-indazol-3-yl)-5H-pyrrolo[2,3-b]pyrazine-7-carboxylic acid isopropylamide] |
| 44.3 | CCNC(=O)c1c[nH]c2ncc(-c3nn(C)c4cc(Cl)ccc34)nc12 [Example I-109, 2-(6-Chloro-1-methyl-1H-indazol-3-yl)-5H-pyrrolo[2,3-b]pyrazine-7-carboxylic acid ethylamide] |
| 8.48 | Cn1nc(-c2cnc3[nH]cc(C(=O)NCC4CC4)c3n2)c2ccc(F)cc21 [Example I-117, 2-(6-Fluoro-1-methyl-1H-indazol-3-yl)-5H-pyrrolo[2,3-b]pyrazine-7-carboxylic acid cyclopropylmethyl-amide] |
